Values after ≈ are worked out from the molar mass of the structure shown. Active and inactive are the calls of the source. The rule behind the calls is not given here.
Experiments:
Escherichia coli = test: Antibacterial activity against Escherichia coli ATCC 11175 incubated for 24 hrs by microdilution method; assay type: functional, organism-based
Candida albicans = test: Antifungal activity against Candida albicans ATCC 10231 incubated for 24 hrs by microdilution method; assay type: functional, organism-based
Nakaseomyces glabratus = test: Antifungal activity against Candida glabrata ATCC 2001 incubated for 24 hrs by microdilution method; assay type: functional, organism-based
Pseudomonas aeruginosa = test: Antibacterial activity against Pseudomonas aeruginosa ATCC 10145 incubated for 24 hrs by microdilution method; assay type: functional, organism-based
Staphylococcus aureus [1] = test: Antibacterial activity against Staphylococcus aureus ATCC 6538 in absence of HCHO by microdilution method; assay type: functional
Staphylococcus aureus [2] = test: Antibacterial activity against methicillin-resistant Staphylococcus aureus ATCC 43300 in absence of HCHO by microdilution method; assay type: functional
Streptomyces sp. [3] = test: Protection against formaldehyde-induced toxicity in Streptomyces sp. OUCMDZ-4982 cultured in A1 medium assessed as decrease in bacterial growth incubated for 1 hr; assay type: functional, organism-based
Streptomyces sp. [4] = test: Protection against formaldehyde-induced toxicity in Streptomyces sp. OUCMDZ-4982 cultured in Gauze medium assessed as decrease in bacterial growth incubated for 1 hr; assay type: functional, organism-based
Streptomyces sp. [5] = test: Protection against formaldehyde-induced toxicity in Streptomyces sp. OUCMDZ-4982 cultured in Gauze medium assessed as inhibition of bacterial growth incubated for 1 hr; assay type: functional, organism-based
[6] = Drug metabolism in Staphylococcus aureus ATCC 6538 assessed as 3,3-methylenebis(4-hydroxy-6-methyl-2H-pyran-2-one) formation in presence of 2266E medium by HPLC analysis; assay type: ADME
Bacillus subtilis [7] = test: Antibacterial activity against Bacillus subtilis ATCC 6051 incubated for 24 hrs by microdilution method; assay type: functional
Staphylococcus aureus [8] = test: Bactericidal activity against Staphylococcus aureus ATCC 43300 incubated for 24 hrs by microdilution method; assay type: functional
Staphylococcus aureus [9] = test: Antibacterial activity against Staphylococcus aureus ATCC 6538 incubated for 24 hrs by microdilution method; assay type: functional
Bacillus subtilis [10] = test: Bactericidal activity against Bacillus subtilis ATCC 6051 incubated for 24 hrs by microdilution method; assay type: functional
Staphylococcus aureus [11] = test: Antibacterial activity against Staphylococcus aureus ATCC 43300 incubated for 24 hrs by microdilution method; assay type: functional
[12] = Drug metabolism in Staphylococcus aureus ATCC 6538 assessed as phaeochromycinF formation incubated for 1 hr by LC-MS analysis; assay type: ADME
Staphylococcus aureus [13] = test: Antibiotic activity against Staphylococcus aureus ATCC 6538 assessed as compound dimer phaeochromycinF mediated reduction in bacterial growth in LB medium measured upto 8 days; assay type: functional, organism-based; conditions: time <= 8.0 day
Streptomyces sp. [14] = test: Protection against formaldehyde-induced toxicity in Streptomyces sp. OUCMDZ-4982 cultured in Gauze medium; assay type: functional, organism-based
Bacillus subtilis [15] = test: Antibiotic activity against Bacillus subtilis ATCC 6051 assessed as compound dimer phaeochromycinF mediated reduction in bacterial growth in LB medium measured upto 8 days; assay type: functional, organism-based; conditions: time <= 8.0 day
[16] = Drug metabolism in Bacillus subtilis ATCC 6051 assessed as phaeochromycinF formation incubated for 1 hr by LC-MS analysis; assay type: ADME
[17] = Drug metabolism in Staphylococcus aureus ATCC 6538 assessed as reduction in 5-((4-hydroxy-2-oxo-2H-pyran-6-yl)methyl)-2-methyl-4H-chromen-4-one content incubated for 1 hr by LC-MS analysis; assay type: ADME
Staphylococcus aureus [18] = test: Bacteriostatic activity against methicillin-resistant Staphylococcus aureus ATCC 43300 assessed as reduction in bacterial colonies at 2 to 8 times MIC measured after 24 hrs by time kill assay; assay type: functional, organism-based
Staphylococcus aureus [19] = test: Bactericidal activity against Staphylococcus aureus ATCC 6538 incubated for 24 hrs by microdilution method; assay type: functional
[20] = Drug metabolism in Staphylococcus aureus ATCC 6538 assessed as reduction in formaldehyde content incubated for 1 hr by LC-MS analysis; assay type: ADME
Staphylococcus aureus [21] = test: Induction of drug resistance in Staphylococcus aureus ATCC 6538 assessed as increase in MIC measured after 20 passages incubated for 24 hrs; assay type: functional, organism-based

SMILES | Activity (Escherichia coli) | Activity (Candida albicans) | Activity (Nakaseomyces glabratus) | Activity (Pseudomonas aeruginosa) | further results
CCOC(=O)C[C@@H]1Oc2cc(C)oc(=O)c2[C@@H]1c1c(O)cc(C)oc1=O | inactive | inactive | inactive | inactive | 
Cc1cc(=O)c2c(Cc3cc(O)c(Cc4c(O)cc(Cc5cc(O)cc6c5C(=O)CC(C)(O)O6)oc4=O)c(=O)o3)cccc2o1 (configuration not stated) | inactive | inactive | inactive | inactive | 
Cc1cc(=O)c2c(Cc3cc(O)c(Cc4c(O)cc(Cc5cccc(O)c5)oc4=O)c(=O)o3)cccc2o1 | inactive | inactive | inactive | inactive | 
Cc1cc(=O)c2c(Cc3cc(O)c(C(C)c4c(O)cc(Cc5cccc6oc(C)cc(=O)c56)oc4=O)c(=O)o3)cccc2o1 | inactive | inactive | inactive | inactive | 
Cc1cc(=O)c2c(Cc3cc(O)c([C@H]4c5c(cc(Cc6cccc7oc(C)cc(=O)c67)oc5=O)O[C@H]4CC(=O)O)c(=O)o3)cccc2o1 | inactive | inactive | inactive | inactive | 
CC(C)C[C@@H]1C(=O)N([C@H]2C(=O)N[C@@H](CC(N)=O)C(=O)N[C@H]3C(=O)N[C@H]4C(=O)N[C@H](C(=O)N[C@H](C(=O)O)c5cc(O)cc(O)c5-c5cc4ccc5O)[C@H](O)c4ccc(c(Cl)c4)Oc4cc3cc(c4O[C@@H]3O[C@H](CO)[C@@H](O)[C@H](O)[C@H]3O[C@H]3C[C@](C)(N)[C@H](O)[C@H](C)O3)Oc3ccc(cc3Cl)[C@H]2O)[C@H](C)N1C |  |  |  |  | MIC (Staphylococcus aureus [1]): 64 µg/mL (≈ 43.4 µM); MIC (Staphylococcus aureus [2]): 32 µg/mL (≈ 21.7 µM)
Cc1cc(O)cc(=O)o1 [4-HYDROXY-6-METHYLPYRAN-2-ONE] |  |  |  |  | Activity (Streptomyces sp. [3]): Active; Activity (Streptomyces sp. [4]): inactive; Activity (Streptomyces sp. [5]): Active; Drug metabolism [6]: metabolite_detected
O=C(O)c1cn(C2CC2)c2cc(N3CCNCC3)c(F)cc2c1=O [CIPROFLOXACIN] |  |  |  |  | MIC (Bacillus subtilis [7]): 0.13 µg/mL (≈ 0.392 µM); MBC (Staphylococcus aureus [8]): 4 µg/mL (≈ 12.1 µM); MIC (Staphylococcus aureus [9]): 0.5 µg/mL (≈ 1.51 µM); MBC (Bacillus subtilis [10]): 0.13 µg/mL (≈ 0.392 µM); MIC (Staphylococcus aureus [11]): 1 µg/mL (≈ 3.02 µM)
CCOC(=O)/C=C/C(c1c(O)cc(C)oc1=O)c1c(O)cc(C)oc1=O | inactive | inactive | inactive | inactive | 
CCOC(=O)CC=C(c1c(O)cc(C)oc1=O)c1c(O)cc(C)oc1=O | inactive | inactive | inactive | inactive | 
Cc1cc(=O)c2c(Cc3cc(O)cc(=O)o3)cccc2o1 | inactive | inactive | inactive | inactive | Drug metabolism [12]: metabolite_detected; Activity (Staphylococcus aureus [13]): Active; Activity (Streptomyces sp. [14]): Active; Activity (Bacillus subtilis [15]): inactive; Drug metabolism [16]: metabolite_detected
Cc1cc(=O)c2c(Cc3cc(O)c(Cc4c(O)cc(Cc5cccc6oc(C)cc(=O)c56)oc4=O)c(=O)o3)cccc2o1 | inactive | inactive | inactive | inactive | MIC (Bacillus subtilis [7]): 0.5 µg/mL (≈ 0.861 µM); MBC (Staphylococcus aureus [8]): 8 µg/mL (≈ 13.8 µM); MIC (Staphylococcus aureus [9]): 1 µg/mL (≈ 1.72 µM); MBC (Bacillus subtilis [10]): 1 µg/mL (≈ 1.72 µM); Drug metabolism [17]: metabolite_notdetected; Activity (Staphylococcus aureus [18]): Active; MIC (Staphylococcus aureus [11]): 2 µg/mL (≈ 3.45 µM); MBC (Staphylococcus aureus [19]): 4 µg/mL (≈ 6.89 µM); Drug metabolism [20]: metabolite_notdetected; Activity (Staphylococcus aureus [21]): inactive

Reference: ChEMBL document CHEMBL6092122, “Nonenzymatic Sequestering of Formaldehyde into the Antibiotic Methylene-Bridged Dimer Phaeochromycin F by Streptomyces sp. OUCMDZ-4982 as a Possible Multipronged Chemical Defense Mechanism” (J Nat Prod, 2024)
